Columns and labels:
[1] = test system: intracellular Ca^2+ stores; assay: Ca2+ release from intracellular stores (FURA-2AM loaded cells); format: cell-based; parameters: key to Ca^2+ (Ca^2+ release from intracellular stores): a “+” denotes release; a “+/−” denotes inconclusive
From the text: (§1) As a non-limiting example, compounds 1272 and 1273 (set forth in Table 1) were synthesized starting from 3-bromoaniline, which upon condensation with hydroxylamine and chloral hydrate followed by concentrated sulfuric acid yielded an inseparable regioisomeric mixture of 4- and 6-bromo isatins. The addition of the two phenyl groups to the three position of the oxindole allowed easy chromatographic separation of the 4- and 6-bromo-3,3-diphenyloxindoles 1272 and 1273. Table 1 sets forth biological data for diaryloxindole compounds including, but not limited to 1272 and 1273. For Tables 1-14, Ca^2+ refers to Ca^2+ release from intracellular stores where a “+” denotes release and a “+/−” denotes inconclusive; eIF2α-P refers to phosphorylation of eIF2α measured by Western blot; SRB refers to the inhibitory concentration to reduce cell growth by 50% (IC50) for growth inhibition of A549 lung cancer cells; and n.d. is not determined.
(§2) Without intending to be bound by theory, the mechanism of action of translation initiation inhibitors is set forth in FIG. 1, and includes the depletion (complete or partial depletion) of intracellular calcium (Ca^2+) stores and phosphorylation of eIF2α. Compounds synthesized using the approaches described herein were screened for their ability to partially deplete intracellular Ca^2+ stores using FURA-2AM loaded cells (Benzaquen et al. (1995) Nature Medicine, 1:534, incorporated herein by reference in its entirety for all purposes). A limited subset of compounds were further screened for their ability to deplete endoplasmic reticulum (ER) Ca^2+. The Ca^2+ content of the ER was monitored using ER-targeted, Ca^2+ sensitive, recombinant proteins. These recombinant proteins emitted light by fluorescent resonance energy transfer (FRET) as a function of the Ca^2+ content of the medium. Such assays are previously described (Miyawaki, A.; Mizuno, H.; Llopis, J.; Tsien, R. Y.; Jalink, K. Cameleons as cytosolic and intra-organellar calcium probes, Oxford University Press: Oxford, London, 2001; pp 3-16, incorporated herein by reference in its entirety for all purposes). Compounds that depleted Ca^2+ were further evaluated for their ability to phosphorylate eIF2α. eIF2α phosphorylation was measured by Western blot analysis using the phospho-specific anti-eIF2α antibody, as previously described (Aktas et al. (1998) Proc. Natl. Acad. Sci. USA, 95:8280, incorporated herein by reference in its entirety for all purposes).

eIF2α = eIF2α phosphorylation measured by Western blot; format: cell-based; conditions: for eIF2α-P (phosphorylation of eIF2α measured by Western blot): unit or reference not given
From the text: as §1, §2

A549 lung cancer cells = assay: SRB growth inhibition of A549 lung cancer cells; format: cell-based, human; conditions: for IC50: A549 lung cancer cells, unit inferred, read-out: SRB (IC50 for growth inhibition of A549 lung cancer cells)
From the text: As a non-limiting example, compounds 1272 and 1273 (set forth in Table 1) were synthesized starting from 3-bromoaniline, which upon condensation with hydroxylamine and chloral hydrate followed by concentrated sulfuric acid yielded an inseparable regioisomeric mixture of 4- and 6-bromo isatins. The addition of the two phenyl groups to the three position of the oxindole allowed easy chromatographic separation of the 4- and 6-bromo-3,3-diphenyloxindoles 1272 and 1273. Table 1 sets forth biological data for diaryloxindole compounds including, but not limited to 1272 and 1273. For Tables 1-14, Ca^2+ refers to Ca^2+ release from intracellular stores where a “+” denotes release and a “+/−” denotes inconclusive; eIF2α-P refers to phosphorylation of eIF2α measured by Western blot; SRB refers to the inhibitory concentration to reduce cell growth by 50% (IC50) for growth inhibition of A549 lung cancer cells; and n.d. is not determined. […]

Structure (SMILES) | IC50 (A549 lung cancer cells) [µM] | Ca^2+ (Ca^2+ release from intracellular stores) [1] | eIF2α-P (phosphorylation of eIF2α measured by Western blot) (eIF2α) | eIF2α phosphorylation (in words) (eIF2α) | growth inhibition of cancer cells (in words) (A549 lung cancer cells; A549)
CC(C)(C)c1ccc(O)c(C2(c3cccc(F)c3)C(=O)Nc3ccccc32)c1 (centres unmarked) [Compound 1223] | 7 | + | 4.41 | – | –
CC(C)(C)c1ccc(O)c(C2(c3ccc(F)cc3)C(=O)Nc3ccccc32)c1 (centres unmarked) [Compound 1210] | 4 | + | 1.86 | – | –
CC(C)(C)c1ccc(O)c(C2(c3ccccc3)C(=O)Nc3ccc(Cl)cc32)c1 (centres unmarked) [Compound 1215] | 3 | +/− | 1.1 | – | –
CCc1ccc2c(c1)NC(=O)C2(c1ccccc1)c1cc(C(C)(C)C)ccc1O (centres unmarked) [Compound 1258] | 4 | + | 3.13 | – | –
CC(C)(C)c1ccc(O)c(C2(c3ccccc3)C(=O)Nc3ccc(Br)cc32)c1 (centres unmarked) [Compound 1211] | 3 | + | 1.14 | – | –
COc1ccccc1C1(c2ccc(C(C)(C)C)cc2)C(=O)Nc2ccccc21 (centres unmarked) [Compound 1237] | 17 | + | 1.3 | – | –
CCc1ccc2c(c1)C(c1ccccc1)(c1ccccc1)C(=O)N2 [Compound 1269] | > 20 | + | 1.64 | – | –
CC(C)(C)c1ccc(O)c(C2(c3ccccc3)C(=O)Nc3cc(Br)ccc32)c1 (centres unmarked) [Compound 1235] | 4 | + | 3.2 | – | –
Cc1cccc(C2(c3cc(C(C)(C)C)ccc3O)C(=O)Nc3ccccc32)c1 (centres unmarked) [Compound 1224] | 9 | + | 1.74 | – | –
COc1ccccc1C1(c2cc(C(C)(C)C)ccc2O)C(=O)Nc2ccccc21 (centres unmarked) [Compound 1226] | 3 | + | 2.22 | – | –
O=C1Nc2ccc(I)cc2C1(c1ccccc1)c1ccccc1 [Compound 1264] | 9 | + | 2.53 | – | –
O=C1Nc2ccc(Cl)cc2C1(c1ccccc1)c1ccccc1 [Compound 1206] | 9 | + | 1.58 | – | –
CC(C)(C)c1ccc(O)c(C2(c3ccccc3)C(=O)Nc3c(C(F)(F)F)cccc32)c1 (centres unmarked) [Compound 1230] | 3 | +/− | 0.41 | – | –
COc1ccc2c(c1)C(c1ccccc1)(c1cc(C(C)(C)C)ccc1O)C(=O)N2 (centres unmarked) [Compound 1214] | 6 | + | 1.62 | – | –
O=C1Nc2ccccc2C1(c1ccccc1)c1ccccc1 [Compound 1194] | 13 | + | 2.5 | – | –
CC(C)(C)c1ccc(C2(c3ccccc3O)C(=O)Nc3ccccc32)cc1 (centres unmarked) [Compound 1239] | 8 | + | 1.88 | – | –

Further lines, with some results ahead:

IC50 (A549 lung cancer cells) [µM] | Structure (SMILES) | Ca^2+ (Ca^2+ release from intracellular stores) [1] | eIF2α-P (phosphorylation of eIF2α measured by Western blot) (eIF2α) | eIF2α phosphorylation (in words) (eIF2α) | growth inhibition of cancer cells (in words) (A549 lung cancer cells; A549)
3 | CCCc1ccc(O)c(C2(c3ccccc3)C(=O)Nc3ccccc32)c1 (centres unmarked) [Compound 1283] | + | 7.67 | – | –
9 | O=C1Nc2ccc(F)cc2C1(c1ccccc1)c1ccccc1 [Compound 1350] | + | 1.16 | – | –
3 | Cc1cc(C2(c3ccccc3)C(=O)Nc3ccccc32)c(NS(=O)(=O)c2cccc(C(F)(F)F)c2)cc1O (centres unmarked) [Compound 1514] | + | 1.65 | – | –
3 | Cc1cc(C2(c3ccccc3)C(=O)Nc3ccccc32)c(NS(=O)(=O)c2ccc(Br)cc2)cc1O (centres unmarked) [Compound 1591] | + | 3.30 | – | –
4 | O=C(O)c1ccc(Cl)c2c1NC(=O)C2(c1ccccc1)c1ccccc1 [Compound 1392] | + | 2.76 | improved eIF2α phosphorylation | improved growth inhibition of cancer cells
5 | Cc1cc(C2(c3ccccc3)C(=O)Nc3ccccc32)c(NS(=O)(=O)c2ccc([N+](=O)[O-])cc2)cc1O (centres unmarked) [Compound 1589] | + | 1 | – | –
4 | CC(C)c1ccc(O)c(C2(c3ccccc3)C(=O)Nc3ccccc32)c1 (centres unmarked) [Compound 1282] | + | 4.96 | – | –
3 | CCCCCCCc1ccc(O)c(C2(c3ccccc3)C(=O)Nc3ccccc32)c1 (centres unmarked) [Compound 1279] | +/− | 3.49 | – | –
> 20 | CCc1cccc2c1C(c1ccccc1)(c1ccccc1)C(=O)N2 [Compound 1270] | + | 1.68 | – | –
3 | CCCCCc1ccc(O)c(C2(c3ccccc3)C(=O)Nc3ccccc32)c1 (centres unmarked) [Compound 1286] | + | 8.60 | – | –
9 | COc1ccccc1C1(c2ccccc2)C(=O)Nc2ccccc21 (centres unmarked) [Compound 1292] | +/− | 1.04 | – | –
3 | O=C1Nc2ccccc2C1(c1ccccc1)c1cc(C2CCCCC2)ccc1O (centres unmarked) [Compound 1290] | +/− | 8.60 | – | –
3 | CC(C)CC(NC(=O)COc1ccc(C(C)(C)C)cc1C1(c2ccccc2)C(=O)Nc2ccccc21)C(=O)NC(CO)Cc1ccccc1 (centres unmarked) [Compound 1400] | + | 3.70 | – | –
3 | CC(C)Cc1ccc(O)c(C2(c3ccccc3)C(=O)Nc3ccccc32)c1 (centres unmarked) [Compound 1281] | + | 7.94 | – | –
> 20 | O=C1Nc2c(Cn3ccnc3)ccc(Cl)c2C1(c1ccccc1)c1ccccc1 [Compound 1401] | +/− | 2.56 | – | –
> 20 | COC(=O)c1ccc(Cl)c2c1NC(=O)C2(c1ccccc1)c1ccccc1 [Compound 1351] | +/− | 1.35 | – | –
8 | CCc1ccc(O)c(C2(c3ccccc3)C(=O)Nc3ccccc32)c1 (centres unmarked) [Compound 1285] | + | 2.96 | – | –
13 | CC(C)(C)c1ccc(O)c(C2(Cc3ccccc3)C(=O)Nc3ccccc32)c1 (centres unmarked) [Compound 1275] | +/− | 1.01 | – | –
8 | CC(C)(C)c1ccc(OCC(=O)O)c(C2(c3ccccc3)C(=O)Nc3ccccc32)c1 (centres unmarked) [Compound 1397] | + | 1.46 | – | –
